We go through 13 compounds from patent publication US6369260B1, “Process for the preparation of a pharmacologically active chemical combination” (Laboratori Alchemica S.r.l., priority 1994, dated 2002).

The structures appear in SMILES notation. Where two headings read alike, the source gives them in different places.

For data set [1], the system named is Mycobacterium butyricum induced paw volume increase. Nature of the data set: anti-arthritic activity, standard adjuvant arthritis method. The format is in vivo. Particulars: intraperitoneal, rat. The protocol:
The anti-arthritic activity of (CCCCV) was determined in the rat, according to the standard adjuvant arthritis method, consisting in the injection of a suspension killed Mycobacterium butyricum in mineral oil in the right hind paw under light ether anesthesia. The volume of the left hindpaw was measured by plethysmography.

The nature of data set [2]: gastrointestinal tolerability following intraperitoneal administration. Format: in vivo. The source says: In addition, the gastrointestinal tolerability was examined in (CCCCV), as compared to the native agent.
For data set [3] the following is noted: rat, in vivo, po.
Data set [4] in a line: plasmatic concentration after oral administration in the rats. Particulars: for native products found in plasma: since the first hours of administration; for time of plasmatic elimination half-life versus native compounds: sometimes even by 300% higher.
Data set [5] has as its system rat. The format is in vivo. The method, then: The gastrointestinal tolerability was evaluated by oral administration in the rat.
Data set [6] relates to collagen-stimulated platelets. Description: platelet anti-aggregating activity in vivo. Particulars: power ratio related to the basic product taken as unit standard; oral administration. The method, then: The platelet anti-aggregating activity was evaluated in vivo on the collagen-stimulated platelets, according to the method described by PINON, J.Pharmacol.Methods 12,79 (1984); the gastrointestinal tolerability was evaluated by oral administration in the rat.
The results are shown in Table 2, which summarizes the study of the antithrombotic properties of said products (III), (XIII) (XVII) and (XVIII) after their oral administration.

In data set [7] the test system is carrageen edema. Nature of the data set: anti-inflammatory activity, carrageen edema method. Format: in vivo. Particulars: power ratio related to the basic product taken as unit standard; oral administration, rat. The method, then: The anti-inflammatory activity was determined according to the method of carrageen edema, as described by WINTER et al. Proc.Soc.Exp.Biol.Med. 111,544 (1962), in the rat.
The results are shown in Table 1, which summarizes the study of the anti-inflammatory properties of the compounds under examination after oral administration.

Setting [8] is: Table 2, relative to Aspirin = 1, oral administration.
The mark [9] stands for this setting: Table 1, power ratio related to the basic product taken as unit standard, oral administration.

As to `C[C@]12CCC(=O)C=C1CC[C@@H]1[C@@H]2[C@@H](O)C[C@@]2(C)[C@H]1CC[C@]2(O)C(=O)COC(=O)CCCCCCCC(=O)OCC(=O)[C@]1(O)CC[C@@H]2[C@H]3CCC4=CC(=O)CC[C@@]4(C)[C@@H]3[C@H](O)C[C@]21C` [(CCCCV), di(21-hydrocortisone)azelate], in data set [1], the “anti-arthritic potency relative to parent compound” value was “comparable with the parent compound” and the “duration of pharmacological activity relative to parent compound” value was “greater duration”. Besides, the “inhibition of Mycobacterium butyricum induced paw volume increase” value in data set [1] (suspended in carboxymethylcellulose 0.5-2%) is recorded as “effective in inhibiting significantly”. Moreover, the “gastrointestinal tolerability compared to the native agent” value in data set [2] is recorded as “significantly better tolerated than the parent compound”. For the same compound, the “time of plasmatic elimination half-life versus native compounds” value in data set [3] is listed as “significantly higher”. The “native products found in plasma” value in data set [4] is recorded as “significant quantities of the native products were found”.
Regarding `CC(=O)Oc1ccccc1C(=O)OCCCCCCOC(=O)c1ccccc1OC(C)=O` [(III), 1.6-hexandiol bis-acetylsalicylate], the “GASTROINT. TOLERABIL.” value in data set [5] (setting [8]) was determined as 0.1. Moreover, the “PLATELET ANTI-AGGREGATING ACTIVITY” value in data set [6] came out at 0.8.
Take `CC(C(=O)OCCCCOC(=O)C(C)c1ccc(-c2ccccc2)c(F)c1)c1ccc(-c2ccccc2)c(F)c1` (centres unmarked) [(IX)]: in data set [5] (setting [9]), the “GASTROINT. TOLERABILITY” value worked out at 0.3. In data set [4], the “native products found in plasma” value is reported as “significant quantities of the native products were found” and the “time of plasmatic elimination half-life versus native compounds” value is given as “significantly higher”.
As for `CC(C(=O)OCCCCOC(=O)C(C)c1cccc(C(=O)c2ccccc2)c1)c1cccc(C(=O)c2ccccc2)c1` (centres unmarked) [(VII), 1,4-butandiole bis-2-[(3-benzoyl)phenyl]propionate], in data set [7], the “ANTIEDEMIGENIC ACTIVITY” value worked out at 0.9. The “GASTROINT. TOLERABILITY” value in data set [5] (setting [9]) is 0.3.
Consider `O=C(Cc1ccccc1Nc1c(Cl)cccc1Cl)OCCCCOC(=O)Cc1ccccc1Nc1c(Cl)cccc1Cl` [(X)], for which, in data set [5] (setting [9]), the “GASTROINT. TOLERABILITY” value is 0.1.
Take `CS(=O)(=O)N(C(=O)CCC(=O)N(c1ccc([N+](=O)[O-])cc1Oc1ccccc1)S(C)(=O)=O)c1ccc([N+](=O)[O-])cc1Oc1ccccc1` [(XI), bis-(N-[(2-phenoxy-4-nitro)phenyl]-N′-methansulfonyl)succinamide]: the “GASTROINT. TOLERABILITY” value in data set [5] (setting [9]) came to 0.8. For the same compound, in data set [4], the “native products found in plasma” value is “significant quantities of the native products were found” and the “time of plasmatic elimination half-life versus native compounds” value is given as “significantly higher”.
Take `CC(=O)Oc1ccccc1C(=O)OCCCCOC(=O)c1ccccc1OC(C)=O` [(XIII), 1,4-buthanediol bis-acetylsalycylate]: the “GASTROINT. TOLERABIL.” value in data set [5] (setting [8]) was determined as 0.1. For the same compound, the “PLATELET ANTI-AGGREGATING ACTIVITY” value in data set [6] is on record as 0.8.
Consider `CC(=O)Oc1ccccc1C(=O)O` [Aspirin, reference compound], for which, in data set [5] (in vivo, po), the “GASTROINT. TOLERABIL.” value was 1. Moreover, in data set [6], the “PLATELET ANTI-AGGREGATING ACTIVITY” value came out at 1.
Consider `O=C(O)Cc1ccccc1Nc1c(Cl)cccc1Cl` [Diclofenac, reference compound], for which, in data set [5] (setting [9]), the “GASTROINT. TOLERABILITY” value is listed as 1.
As for `CC(C(=O)O)c1ccc(-c2ccccc2)c(F)c1` (centres unmarked) [Flurbiprofen, reference compound], in data set [5] (in vivo, po), the “GASTROINT. TOLERABILITY” value is on record as 1.
Turning to `CC(C(=O)O)c1cccc(C(=O)c2ccccc2)c1` (centres unmarked) [Ketoprofen, reference compound], in data set [5] (setting [9]), the “GASTROINT. TOLERABILITY” value was determined as 1.
On to `COc1ccc2cc([C@H](C)C(=O)O)ccc2c1` [Naproxen, reference compound], for which the “GASTROINT. TOLERABILITY” value in data set [5] (in vivo, po) was 1.
As to `CS(=O)(=O)Nc1ccc([N+](=O)[O-])cc1Oc1ccccc1` [Nimesulide, reference compound], the “GASTROINT. TOLERABILITY” value in data set [5] (setting [9]) was found to be 1.
